Data published in ChEMBL document CHEMBL4765464, “Discovery of BMS-986144, a Third-Generation, Pan-Genotype NS3/4A Protease Inhibitor for the Treatment of Hepatitis C Virus Infection” (J Med Chem, 2020).

Columns and labels:
[1] = Clearance in rat at 5 mg/kg, po or 1 mg/kg, iv; format: ADME, organism-based; settings: in vivo
[2] = Selectivity index, ratio of IC50 for inhibition of HCV 4a NS3/4A protease to IC50 for inhibition of HCV 4a NS3/4A protease preincubated for 45 mins in presence of compound
[3] = Clearance in cynomolgus monkey at 3 mg/kg, po or 1 mg/kg, iv; format: ADME, organism-based, Macaca fascicularis; settings: in vivo
[4] = Inhibition of HCV 6a NS3/4A protease; parameters: species or system Hepatitis C virus subtype 6a
[5] = Inhibition of HCV 3a NS3/4A protease; parameters: species or system Hepatitis C virus subtype 3a
Cytochrome P450 3A4 = Cytochrome P450 3A4 (Homo sapiens, UniProt P08684); experiment: Inhibition of human CYP3A4 in human pooled liver microsomes at 0.002 to 40 uM in presence of testosterone as substrate preincubated in presence of NADPH followed by addition of substrate by LC-MS/MS analysis; format: ADME; settings: TDE = time-dependent effect, dose 0.002-40 µM, time <=30 min
Sequence of Cytochrome P450 3A4 (P08684 whole entry): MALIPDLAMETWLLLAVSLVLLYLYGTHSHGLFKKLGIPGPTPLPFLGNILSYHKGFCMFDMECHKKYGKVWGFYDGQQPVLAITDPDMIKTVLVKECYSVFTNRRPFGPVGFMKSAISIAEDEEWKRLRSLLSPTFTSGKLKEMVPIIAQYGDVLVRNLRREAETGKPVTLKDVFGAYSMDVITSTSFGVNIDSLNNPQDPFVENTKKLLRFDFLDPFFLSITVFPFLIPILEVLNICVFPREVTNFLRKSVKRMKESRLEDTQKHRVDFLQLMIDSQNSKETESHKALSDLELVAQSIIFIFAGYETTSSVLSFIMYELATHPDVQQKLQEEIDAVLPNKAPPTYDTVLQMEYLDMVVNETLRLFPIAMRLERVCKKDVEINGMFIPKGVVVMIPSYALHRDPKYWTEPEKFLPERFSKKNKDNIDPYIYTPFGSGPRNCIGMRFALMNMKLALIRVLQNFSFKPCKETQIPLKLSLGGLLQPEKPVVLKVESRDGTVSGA

[6] = Inhibition of HCV 5a NS3/4A protease; parameters: species or system Hepatitis C virus subtype 5a
[7] = Drug concentration in rat plasma at 5 mg/kg, po measured upto 24 hrs; format: ADME, organism-based; settings: read-out: Ct
[8] = Clearance in rat at 1 mg/kg, iv; format: ADME, organism-based; settings: in vivo
[9] = Inhibition of HCV 2a NS3/4A protease; parameters: species or system Hepatitis C virus subtype 2a
[10] = Inhibition of HCV 5a NS3/4A protease preincubated for 45 mins in presence of compound; parameters: species or system Hepatitis C virus subtype 5a
[11] = Selectivity index, ratio of IC50 for inhibition of HCV 3a NS3/4A protease to IC50 for inhibition of HCV 3a NS3/4A protease preincubated for 45 mins in presence of compound
[12] = Inhibition of HCV 1b NS3/4A protease preincubated for 45 mins in presence of compound; parameters: species or system Hepatitis C virus subtype 1b
[13] = Drug concentration in dog plasma at 3 mg/kg, po measured upto 24 hrs; format: ADME, organism-based, Canis lupus familiaris; settings: read-out: Ct
[14] = Inhibition of HCV 2b NS3/4A protease preincubated for 45 mins in presence of compound; parameters: species or system Hepatitis C virus subtype 2b
[15] = Half life in rat at 1 mg/kg, iv; format: ADME, organism-based; settings: in vivo

Question: Which clearance [1] does the source give for CC[C@@H]1C[C@H](C)CC/C=C\[C@@H]2C[C@@]2(C(=O)NS(=O)(=O)C2(C)CC2)NC(=O)[C@@H]2C[C@@H](Oc3nccc4cc(OC)c(F)cc34)CN2C(=O)[C@H]1NC(=O)OC(C)(C)C(F)(F)F here?
Answer: The clearance was 0.3 mL/min/kg.

Question: And the Selectivity Index [2]?
Answer: The Selectivity Index was 9.

Question: What about the clearance [3] of the same molecule?
Answer: The clearance was 9.3 mL/min/kg.

Question: And the IC50 [4]?
Answer: Its IC50 is 0.7 nM.

Question: And the IC50 [5]?
Answer: The IC50 was 5.6 nM.

Question: And the “inhibition (INH)” value (Cytochrome P450 3A4)?
Answer: The value was “Tde”.

Question: And the IC50 [6]?
Answer: Its IC50 is 1 nM.

Question: What about the concentration at 24 h [7] of the same molecule?
Answer: The concentration at 24 h was 3850 nM.

Question: What about the clearance [8] of the same molecule?
Answer: Its clearance is 0.3 mL/min/kg.

Question: And the IC50 [9]?
Answer: Its IC50 is 0.7 nM.

Question: What about the IC50 [10] of the same molecule?
Answer: Its IC50 is 0.1 nM.

Question: What about the Selectivity Index [11] of the same molecule?
Answer: Its Selectivity Index is 1.

Question: What about the IC50 [12] of the same molecule?
Answer: Its IC50 is 0.1 nM.

Question: And the concentration at 24 h [13]?
Answer: The concentration at 24 h was 838 nM.

Question: And the IC50 [14]?
Answer: The IC50 was 0.9 nM.

Question: What about the half-life [15] of the same molecule?
Answer: Its half-life is 9.3 h.
